Assay [1] deals with CD8+ T cells. The assay can be described thus: In vitro T-cell priming assay with aAPCs loaded with peptide/MHC and anti-CD28, multimer readout. The settings on record: in vitro immunogenicity; for Wells positive [%]: Table 15B; for donors / wells: Table 15A; for donors: positive donors; for wells: positive wells. It is filed as cell-based, human. From the text:
In order to obtain information regarding the immunogenicity of the TUMAPs of the present invention, the inventors performed investigations using an in vitro T-cell priming assay based on repeated stimulations of CD8+ T cells with artificial antigen presenting cells (aAPCs) loaded with peptide/MHC complexes and anti-CD28 antibody.
In order to perform in vitro stimulations by artificial antigen presenting cells loaded with peptide-MHC complex (pMHC) and anti-CD28 antibody, the inventors first isolated CD8+ T cells from fresh HLA-A*02 leukapheresis products via positive selection using CD8 microbeads (Miltenyi Biotec, Bergisch-Gladbach, Germany) of healthy donors obtained from the University clinics Mannheim, Germany, after informed consent.
PBMCs and isolated CD8+ lymphocytes were incubated in T-cell medium (TCM) until use consisting of RPMI-Glutamax (Invitrogen, Karlsruhe, Germany) supplemented with 10% heat inactivated human AB serum (PAN-Biotech, Aidenbach, Germany), 100 U/ml Penicillin/100 μg/ml Streptomycin (Cambrex, Cologne, Germany), 1 mM sodium pyruvate (CC Pro, Oberdorla, Germany), 20 μg/ml Gentamycin (Cambrex). 2.5 ng/ml IL7 (PromoCell, Heidelberg, Germany) and 10 U/ml IL-2 (Novartis Pharma, Nurnberg, Germany) were also added to the TCM at this step.
Generation of pMHC/anti-CD28 coated beads, T-cell stimulations and readout was performed in a highly defined in vitro system using four different pMHC molecules per stimulation condition and 8 different pMHC molecules per readout condition.
The purified co-stimulatory mouse IgG2a anti human CD28 Ab 9.3 (Jung et al., 1987) was chemically biotinylated using Sulfo-N-hydroxysuccinimidobiotin as recommended by the manufacturer (Perbio, Bonn, Germany). Beads used were 5.6 μm diameter streptavidin coated polystyrene particles (Bangs Laboratories, Illinois, USA).
800.000 beads/200 μl were coated in 96-well plates in the presence of 4×12.5 ng different biotin-pMHC, washed and 600 ng biotin anti-CD28 were added subsequently in a volume of 200 μl. Stimulations were initiated in 96-well plates by co-incubating […] CD8+ T cells with 2×10^5 washed coated beads in 200 μl TCM supplemented with 5 ng/ml IL-12 (PromoCell) for 3 days at 37° C. Half of the medium was then exchanged by fresh TCM supplemented with 80 U/ml IL-2 and incubating was continued for 4 days at 37° C. This stimulation cycle was performed for a total of three times. For the pMHC multimer readout using 8 different pMHC molecules per condition, a two-dimensional combinatorial coding approach was used as previously described (Andersen et al., 2012) with minor modifications encompassing coupling to 5 different fluorochromes. Finally, multimeric analyses were performed by staining the cells with Live/dead near IR dye (Invitrogen, Karlsruhe, Germany), CD8-FITC antibody clone SK1 (BD, Heidelberg, Germany) and fluorescent pMHC multimers. For analysis, a BD LSRII SORP cytometer equipped with appropriate lasers and filters was used. Peptide specific cells were calculated as percentage of total CD8+ cells. Evaluation of multimeric analysis was done using the FlowJo software (Tree Star, Oregon, USA). In vitro priming of specific multimer+ CD8+ lymphocytes was detected by comparing to negative control stimulations.

The target in assay [2] is HLA-A*02 (Homo sapiens, UniProt P04439, D140Y/D185E/D98H/E176V/E277Q/G131W/G231S/I119V/I121R/I166T/I218V/L300P/N151K/N90K/P208A/P217A/Q86G/Q94H/R138H/R169H). The assay can be described thus: MHC binding assay by UV-ligand exchange and beta2m ELISA. The settings on record: peptide exchange yield. From the text:
(§1) Candidate peptides for T cell based therapies according to the present invention were further tested for their MHC binding capacity (affinity). The individual peptide-MHC complexes were produced by UV-ligand exchange, where a UV-sensitive peptide is cleaved upon UV-irradiation, and exchanged with the peptide of interest as analyzed. Only peptide candidates that can effectively bind and stabilize the peptide-receptive MHC molecules prevent dissociation of the MHC complexes. To determine the yield of the exchange reaction, an ELISA was performed based on the detection of the light chain (β2m) of stabilized MHC complexes. The assay was performed as generally described in Rodenko et al. (Rodenko et al., 2006).
(§2) 96 well MAXISorp plates (NUNC) were coated over night with 2 ug/ml streptavidin in PBS at room temperature, washed 4× and blocked for 1 h at 37° C. in 2% BSA containing blocking buffer. Refolded HLA-A*02:01/MLA-001 monomers served as standards, covering the range of 15-500 ng/ml. Peptide-MHC monomers of the UV-exchange reaction were diluted 100 fold in blocking buffer. Samples were incubated for 1 h at 37° C., washed four times, incubated with 2 ug/ml HRP conjugated anti-β2m for 1 h at 37° C., washed again and detected with TMB solution that is stopped with […]. Absorption was measured at 450 nm. Candidate peptides that show a high exchange yield (preferably higher than 50%, most preferred higher than 75%) are generally preferred for a generation and production of antibodies or fragments thereof, and/or T cell receptors or fragments thereof, as they show sufficient avidity to the MHC molecules and prevent dissociation of the MHC complexes.
Background: In an ELISA, binding on a coated surface is turned into a signal by an enzyme label.

Assay [3] has as its system HLA-A*24. Described as above. Details: species or system human. The settings on record: peptide exchange yield.
From the text: as §1, §2

Consider “1 (VTAQIGIVAV; listed as Homo sapiens) [compound 1]”, for which the “Wells positive [%]” value in assay [1] is “++++ (>=70% = ++++)”. The Peptide exchange entry in assay [2] is reported as “++++ (>75% = ++++)”.
Turning to “2 (SMLGEEIQL; listed as Homo sapiens) [compound 2]”, the Peptide exchange entry in assay [2] is reported as “++++ (>75% = ++++)”.
With “3 (HLLEDIAHV; listed as Homo sapiens) [compound 3]”, the “Wells positive [%]” value in assay [1] was “++ (20%-49% = ++)”. Further, the Peptide exchange entry in assay [2] is “++++ (>75% = ++++)”.
In the case of “4 (ALLTFVWKL; listed as Homo sapiens) [compound 4]”, the Peptide exchange entry in assay [2] was “++++ (>75% = ++++)”.
In the case of “5 (KIFSRLIYI; listed as Homo sapiens) [compound 5]”, in assay [1], the “Wells positive [%]” value is on record as “+++ (50%-69%= +++)”. The Peptide exchange result in assay [2] is “+++ (>50 = +++)”.
“7 (TLLQVVGVVSV; listed as Homo sapiens) [compound 7]”: the Peptide exchange entry in assay [2] was “++ (>20% = ++)”.
Regarding “9 (GMLNEAEGKAIKL; listed as Homo sapiens) [compound 9]”, in assay [2], the Peptide exchange entry is listed as “+++ (>50 = +++)”.
“10 (TLWRGPVVV; listed as Homo sapiens) [compound 10]”: the Peptide exchange result in assay [2] was “+++ (>50 = +++)”.
With “11 (YLEEECPAT; listed as Homo sapiens) [compound 11]”, in assay [2], the Peptide exchange entry is given as “++ (>20% = ++)”.
On the same count and under the same terms, to “13 (AMAPNHAVV; listed as Homo sapiens) [compound 13]” belongs “+++ (>50 = +++)”.
Same read-out and setting: to “14 (KMDEASAQLL; listed as Homo sapiens) [compound 14]” belongs “++ (>20% = ++)”; to “15 (KMDEASAQLLA; listed as Homo sapiens) [compound 15]”, “+++ (>50 = +++)”; to “16 (KMDEASAQL; listed as Homo sapiens) [compound 16]”, “+++ (>50 = +++)”.
On to “17 (RLGIKPESV; listed as Homo sapiens) [compound 17]”, for which, in assay [1], the donors result is “++++ (>=70% = ++++)” and the wells entry is “++ (20%-49% = ++)”.
As for “20 (SLLSHQVLL; listed as Homo sapiens) [compound 20]”, in assay [2], the Peptide exchange result was “+++ (>50 = +++)”.
Same read-out and setting: for “21 (YLNDSLRHV; listed as Homo sapiens) [compound 21]” the value was “++ (>20% = ++)”; for “22 (SLYDSIAFI; listed as Homo sapiens) [compound 22]”, “++++ (>75% = ++++)”.
For the substance “24 (SYNDALLTF; listed as Homo sapiens) [compound 24]”, the “Wells positive [%]” value in assay [1] was “+++ (50%-69%= +++)”. Also, the Peptide exchange result in assay [3] is “+++ (>50 = +++)”.
For the substance “25 (IYEPYLAMF; listed as Homo sapiens) [compound 25]”, in assay [3], the Peptide exchange entry was “+++ (>50 = +++)”.
With “26 (RYADDTFTPAF; listed as Homo sapiens) [compound 26]”, in assay [3], the Peptide exchange entry is recorded as “+++ (>50 = +++)”.
As to “27 (GYLQGLVSF; listed as Homo sapiens) [compound 27]”, the “Wells positive [%]” value in assay [1] was “++ (20%-49% = ++)”. Besides, the Peptide exchange result in assay [3] was “++++ (>75% = ++++)”.
On to “28 (YYAKEIHKF; listed as Homo sapiens) [compound 28]”, for which the Peptide exchange entry in assay [3] is “++++ (>75% = ++++)”.
For “29 (RYGSPINTF; listed as Homo sapiens) [compound 29]”, in assay [1], the donors result is listed as “+++ (50%-69% = +++)” and the wells result was “+ (<20% = +)”. In assay [3], the Peptide exchange result is listed as “+++ (>50 = +++)”.
In the case of “30 (SYSPAHARL; listed as Homo sapiens) [compound 30]”, the Peptide exchange result in assay [3] was “+++ (>50 = +++)”.
Still for that read-out and setting: to “31 (AYTSPPSFF; listed as Homo sapiens) [compound 31]” belongs “+++ (>50 = +++)”; to “32 (PYQLNASLFTF; listed as Homo sapiens) [compound 32]”, “++++ (>75% = ++++)”; to “33 (QYGKDFLTL; listed as Homo sapiens) [compound 33]”, “+++ (>50 = +++)”.
“34 (AFSPDSHYLLF; listed as Homo sapiens) [compound 34]”: in assay [1], the donors result is on record as “+++ (50%-69% = +++)” and the wells result is reported as “+ (<20% = +)”. In addition, in assay [3], the Peptide exchange result is “+++ (>50 = +++)”.
Taken in the same sequence, the figures for “35 (IYTRVTYYL; listed as Homo sapiens) [compound 35]” were “++++ (>=70% = ++++)”, “++ (20%-49% = ++)” and “++ (>20% = ++)”.
For the substance “36 (RYMWINQEL; listed as Homo sapiens) [compound 36]”, in assay [3], the Peptide exchange entry was “+++ (>50 = +++)”.
Same read-out and setting: to “41 (RYLQKIEEF; listed as Homo sapiens) [compound 41]” belongs “+++ (>50 = +++)”.
As to “42 (TYIGQGYII; listed as Homo sapiens) [compound 42]”, in assay [1], the donors result is on record as “++++ (>=70% = ++++)” and the wells result was “+ (<20% = +)”. The Peptide exchange result in assay [3] was “+++ (>50 = +++)”.
For the substance “43 (AYIKNGQLF; listed as Homo sapiens) [compound 43]”, the Peptide exchange result in assay [3] was “+++ (>50 = +++)”.
Same read-out and setting: for “44 (VYNTVSEGTHF; listed as Homo sapiens) [compound 44]” the value was “+++ (>50 = +++)”.
The same measure, in the same setting: for “45 (RYFKTPRKF; listed as Homo sapiens) [compound 45]” the value was “++ (>20% = ++)”; for “47 (SYTPVLNQF; listed as Homo sapiens) [compound 47]”, “++++ (>75% = ++++)”; for “48 (AWAPKPYHKF; listed as Homo sapiens) [compound 48]”, “+++ (>50 = +++)”.
For “52 (ALGDLVQSV; listed as Homo sapiens) [compound 52]”, the Peptide exchange result in assay [2] was “+++ (>50 = +++)”.
For “53 (YLLKDKGEYTL; listed as Homo sapiens) [compound 53]”, in assay [2], the Peptide exchange entry is reported as “+++ (>50 = +++)”.
As to “54 (AYSEKVTEF; listed as Homo sapiens) [compound 54]”, in assay [3], the Peptide exchange result is listed as “+++ (>50 = +++)”.
Same read-out and setting: for “55 (LYFEKGEYF; listed as Homo sapiens) [compound 55]” the value was “++++ (>75% = ++++)”.
Still for that read-out and setting: to “56 (LFHPEDTGQVF; listed as Homo sapiens) [compound 56]” belongs “++ (>20% = ++)”; to “58 (GYIDKVRQL; listed as Homo sapiens) [compound 58]”, “++ (>20% = ++)”.
As to “59 (IYPDVTYAF; listed as Homo sapiens) [compound 59]”, in assay [3], the Peptide exchange result is listed as “+++ (>50 = +++)”.

(Values after patent publication US11786584B2, “Peptides and combination of peptides for use in immunotherapy against prostate cancer and other cancers” (Immatics Biotechnologies GmbH, priority 2015, dated 2023).)
